Source: the supplement of paper PMC10307832

What follows are cell lines tested with CC(C)=CC[C@@H](O)C1=CC(=O)c2c(O)ccc(O)c2C1=O [Shikonin] + Cc1cc(Nc2cc(N3CCN(C)CC3)nc(Sc3ccc(NC(=O)C4CC4)cc3)n2)n[nH]1 [Tozasertib] (partner 0.1 µM) (assay: relative viability (nuclei count vs DMSO), 5 days (fraction); higher = more cells survive). Conditions: first compound 1 µM.
Summary of the method: (§1)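 Five library-drug doses in √10 steps were combined with a fixed anchor-drug dose, or a single drug was given alone, by pin tool to lung cancer cell lines in 1536-well plates the day after seeding. Nuclei were stained and counted after 5 days. Relative viability is the nuclei count in treated wells over that in vehicle wells, taken as the median of duplicate plates.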

Cell Line | relative viability
H3255 | 0.797
COR-L23 | 0.149
COR-L 105 | 0.366
LOU-NH91 | 0.683
ChaGo-K-1 | 0.248
HCC-44 | 0.937
NCI-H522 | 0.572
SW 900 | 0.536
NCI-H2023 | 0.412
NCI-H661 | 0.37
SW 1573 | 0.0571
SK-LU-1 | 0.3

These cell lines were tested with CC(C)=CC[C@@H](O)C1=CC(=O)c2c(O)ccc(O)c2C1=O [Shikonin] + NC(=O)Nc1cc(-c2cccc(F)c2)sc1C(=O)N[C@H]1CCCNC1 [AZD7762] (partner 0.2 µM) in the same assay as above. Conditions: first compound 0.01 µM.
Summary of the method: as §1

Cell Line | relative viability
NCI-H2342 | 0.503
PC-14 | 0.381
NCI-H1993 | 0.524
PC-3 [JPC-3] | 0.825
LCLC-103H | 0.796
NCI-H647 | 0.646
EMC-BAC-2 | 1.15
NCI-H2087 | 1.38
HCC-366 | 0.281
NCI-H1666 | 0.776
NCI-H650 | 0.962
LK-2 | 0.368
NCI-H2126 | 1.03
NCI-H1648 | 0.829
H3255 | 0.909
LOU-NH91 | 0.839
ChaGo-K-1 | 0.942
HCC-44 | 1.03
NCI-H522 | 0.912
SW 900 | 0.769
NCI-H1792 | 0.663

Same assay, conditions: first compound 0.1 µM

Cell Line | relative viability
NCI-H2342 | 0.451
PC-14 | 0.274
NCI-H1703 | 0.125
NCI-H1993 | 0.667
PC-3 [JPC-3] | 0.846
LCLC-103H | 0.889
NCI-H647 | 0.406
EMC-BAC-2 | 1.32
NCI-H2087 | 1.12
HCC-366 | 0.25
NCI-H1666 | 0.9
NCI-H650 | 1.07
LK-2 | 0.428
NCI-H2126 | 1.01
H3255 | 0.977
LOU-NH91 | 0.864
ChaGo-K-1 | 0.906
HCC-44 | 1.01
NCI-H522 | 0.957
SW 900 | 0.634
NCI-H1792 | 0.618

Same assay, conditions: first compound 0.3162 µM

Cell Line | relative viability
NCI-H2342 | 0.471
PC-14 | 0.438
NCI-H1703 | 0.124
NCI-H1993 | 0.632
PC-3 [JPC-3] | 0.755
LCLC-103H | 0.815
NCI-H647 | 0.429
EMC-BAC-2 | 1.21
NCI-H2087 | 1.35
HCC-366 | 0.308
NCI-H1666 | 1
NCI-H650 | 1.17
LK-2 | 0.424
NCI-H2126 | 1.11
NCI-H1648 | 0.825
H3255 | 0.943
LOU-NH91 | 0.816
ChaGo-K-1 | 0.913
HCC-44 | 1.05
NCI-H522 | 0.864
SW 900 | 0.262
NCI-H1792 | 0.604

Same assay, conditions: first compound 1 µM

Cell Line | relative viability
NCI-H2342 | 0.472
PC-14 | 0.576
NCI-H1703 | 0.113
NCI-H1993 | 0.906
PC-3 [JPC-3] | 1
LCLC-103H | 0.954
NCI-H647 | 0.529
EMC-BAC-2 | 1.16
NCI-H2087 | 1.23
HCC-366 | 0.269
NCI-H1666 | 0.887
NCI-H650 | 0.947
LK-2 | 0.231
NCI-H2126 | 1.08
NCI-H1648 | 0.457
H3255 | 0.911
LOU-NH91 | 0.84
ChaGo-K-1 | 0.876
HCC-44 | 1.04
NCI-H522 | 0.806
SW 900 | 0.542
NCI-H1792 | 0.694

What follows are cell lines tested with CC(C)N(CCCNC(=O)Nc1ccc(C(C)(C)C)cc1)C[C@H]1O[C@@H](n2ccc3c(N)ncnc32)[C@H](O)[C@@H]1O + Cc1nc(NC(=O)N2CCC[C@H]2C(N)=O)sc1-c1ccnc(C(C)(C)C(F)(F)F)c1 [Alpelisib] (partner 2 µM) in the same assay as above. Conditions: first compound 0.08 µM.
Summary of the method: as §1

Cell Line | relative viability
PC-14 | 0.883
EBC-1 | 0.749
NCI-H1703 | 0.309
NCI-H2009 | 1.19
NCI-H1993 | 0.696
NCI-H520 | 0.796
PC-3 [JPC-3] | 1.04
LCLC-103H | 1.03
NCI-H647 | 1.14
NCI-H2228 | 0.782
EMC-BAC-2 | 0.654
NCI-H2087 | 1.04
Calu-6 | 0.987
HCC-366 | 0.394
NCI-H1666 | 0.888
NCI-H650 | 0.984

Cell Line | relative viability
LK-2 | 0.923
NCI-H2126 | 0.734
SK-MES-1 | 0.992
H3255 | 0.93
COR-L23 | 0.74
COR-L 105 | 0.733
IA-LM | 0.667
LOU-NH91 | 0.631
HCC-44 | 0.811
A549 | 0.68
NCI-H2023 | 0.532
NCI-H1299 | 1.03
NCI-H661 | 0.692
NCI-H1792 | 0.671
NCI-H1563 | 0.991
SW 1573 | 0.771
